Data reported in patent US20260325685A1, “Radiopharmaceutical Compositions Targeting Carbonic Anhydrase IX and Uses Thereof” (RayzeBio, Inc., priority 2023, published 2026).
Like-named read-outs stand apart in the source and are kept apart here.

What was measured:
[1] = target: T1, human CA-XII (Homo sapiens, UniProt O43570); assay: Surface Plasmon Resonance (SPR) binding kinetics to recombinant human CA-XII (Biacore 8K, single-cycle kinetics, 1:1 binding model)
T1 construct: purchased Creative BioMart CA12-261H
Summary of the method: (§1)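 Recombinant human CA-IX or CA-XII captured on streptavidin chips (1200-1800 RU) in PBS-P+, pH 7.4. Single-cycle kinetics over 9 analyte concentrations (100-0.39 nM) with 1% DMSO, 120 s association, 1200 s dissociation, 25° C. Reference- and DMSO-corrected curves fit to 1:1 model for on/off rates.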

[2] = target: T2, human CA-IX (Homo sapiens, UniProt Q16790); assay: Surface Plasmon Resonance (SPR) binding kinetics to recombinant human CA-IX (Biacore 8K, single-cycle kinetics, 1:1 binding model)
T2 construct: purchased Acro CA9-H82E3
Summary of the method: as §1

[3] = Chelated Metal: Lu-175, 25° C., pH 7.4, read-out: CAXII KD
[4] = Chelated Metal: Lu-175; SPR, 25° C., pH 7.4; read-out: CAIX KD
[5] = read-out: CAXII KD, Chelated Metal: Lu-175, 25° C., pH 7.4
[6] = read-out: CAIX KD; Chelated Metal: Lu-175; SPR, 25° C., pH 7.4

T1 sequence (O43570 25-354): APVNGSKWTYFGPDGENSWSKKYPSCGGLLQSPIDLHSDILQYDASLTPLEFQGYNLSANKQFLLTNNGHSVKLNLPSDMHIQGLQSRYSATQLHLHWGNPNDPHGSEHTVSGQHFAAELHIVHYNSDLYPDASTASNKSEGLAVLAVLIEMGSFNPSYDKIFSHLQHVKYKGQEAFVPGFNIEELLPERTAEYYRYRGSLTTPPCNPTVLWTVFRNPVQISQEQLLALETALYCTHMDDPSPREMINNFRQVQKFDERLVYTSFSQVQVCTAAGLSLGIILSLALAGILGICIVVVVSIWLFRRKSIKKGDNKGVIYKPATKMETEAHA

Row | SMILES | Kd [1, 3] [nM] | Kd [2, 4] [nM] | other results
1 | CC(CCCC(=O)N1CCCC[C@H]1C(=O)N[C@@H](CC(=O)N1CCN(C(=O)CN2CCN(CC(=O)O)CCN(CC(=O)O)CCN(CC(=O)O)CC2)C[C@@H]1C(=O)NCCn1cc(C23CC(C(=O)Nc4nnc(S(N)(=O)=O)s4)(C2)C3)nn1)C(=O)O)(c1ccc(O)cc1)c1ccc(O)cc1.[Lu+3] [Compound 109.40] | > 10 | < 1 | –
2 | CC(CCC(=O)N[C@@H](CC(=O)N[C@@H](CC(=O)N[C@@H](CCCCn1cc(C23CCC(C(=O)Nc4nnc(S(N)(=O)=O)s4)(CC2)CC3)nn1)C(=O)NCCOCCOCCNC(=O)CN1CCN(CC(=O)O)CCN(CC(=O)O)CCN(CC(=O)O)CC1)C(=O)O)C(=O)O)(c1ccc(O)cc1)c1ccc(O)cc1.[Lu+3] [Compound 100.6] | 1 to 2.5 | < 1 | –
3 | NS(=O)(=O)c1nnc(NC(=O)C23CC(c4cn(CCNC(=O)[C@@H]5CN(C(=O)CN6CCN(CC(=O)O)CCN(CC(=O)O)CC6)CCN5C(=O)C[C@H](NC(=O)C[C@H](NC(=O)CC5CC6(CCC6)C5)C(=O)O)C(=O)O)nn4)(C2)C3)s1.[Cu+2] [Compound 126.5] | – | – | Kd ([1]; Chelated Metal: Cu (cold), 25° C., pH 7.4, read-out: CAXII KD): 1 to 2.5 nM; Kd ([2]; Chelated Metal: Cu (cold); SPR, 25° C., pH 7.4; read-out: CAIX KD): < 1 nM
4 | CC(CCC(=O)N[C@@H](CC(=O)N[C@@H](CC(=O)N1CCN(C(=O)CN2CCN(CC(=O)O)CCN(CC(=O)O)CCN(CC(=O)O)CC2)C[C@H]1C(=O)NCCn1cc(-c2ccc(C(=O)Nc3nnc(S(N)(=O)=O)s3)c(Cl)c2)nn1)C(=O)O)C(=O)O)(c1ccc(O)cc1)c1ccc(O)cc1.[Lu+3] [Compound 107.30] | 1 to 2.5 | < 1 | –
5 | CC(CCC(=O)N1CCOC[C@@H]1C(=O)N[C@@H](CC(=O)N1CCN(C(=O)CN2CCN(CC(=O)O)CCN(CC(=O)O)CCN(CC(=O)O)CC2)C[C@@H]1C(=O)NCCn1cc(C23CC(C(=O)Nc4nnc(S(N)(=O)=O)s4)(C2)C3)nn1)C(=O)O)(c1ccc(O)cc1)c1ccc(O)cc1.[Lu+3] [Compound 108.4] | > 10 | 1 to 2.5 | –
6 | NC(=O)C1(C(=O)NCC(=O)N2CCN(C(=O)CN3CCN(CC(=O)O)CCN(CC(=O)O)CCN(CC(=O)O)CC3)C[C@H]2C(=O)NCCn2cc(C34CC(C(=O)Nc5nnc(S(N)(=O)=O)s5)(C3)C4)nn2)CCN(C(=O)c2ccc(C3CC3)nn2)CC1.[Lu+3] [Compound 113] | – | – | Kd [1, 5]: > 10 nM; Kd [2, 6]: 2.5 to 10 nM
7 | CC(CCC(=O)N[C@@H](CC(=O)N[C@@H](CC(=O)N1CCN(C(=O)[C@H](CCC(=O)NCCOCCOCCOCCOCCOCCOCCOCCOCCC(=O)N[C@@H](CCCCNC(=O)CCCc2ccc(Cl)cc2)C(=O)O)NC(=O)CN2CCN(CC(=O)O)CCN(CC(=O)O)CCN(CC(=O)O)CC2)C[C@H]1C(=O)NCCn1cc(C23CC(C(=O)Nc4nnc(S(N)(=O)=O)s4)(C2)C3)nn1)C(=O)O)C(=O)O)(c1ccc(O)cc1)c1ccc(O)cc1.[Lu+3] (racemic) [Compound 125.1] | > 10 | 2.5 to 10 | –
8 | CC(CCC(=O)N[C@@H](CC(=O)N[C@@H](CC(=O)N1CCN(C(=O)CN2CCN(CC(=O)O)CCN(CC(=O)O)CCN(CC(=O)O)CC2)C[C@H]1C(=O)NCCn1cc(C23CCC(C(=O)Nc4nnc(S(N)(=O)=O)s4)(CC2)C3)nn1)C(=O)O)C(=O)O)(c1ccc(O)cc1)c1ccc(O)cc1.[Lu+3] [Compound 107.2] | < 1 | < 1 | –
9 | CC(CCCC(=O)N1CCC(C(N)=O)(C(=O)NCC(=O)NC2CCN(C(=O)CCOCCOCCOCCOCCN(CCOCCOCCOCCOCCC(=O)N3CCC(NC(=O)CNC(=O)C4(C(N)=O)CCN(C(=O)CCCC(C)(c5ccc(O)cc5)c5ccc(O)cc5)CC4)C(C(=O)NCCn4cc(C56CC(C(=O)Nc7nnc(S(N)(=O)=O)s7)(C5)C6)nn4)C3)C(=O)CNC(=O)CN3CCN(CC(=O)O)CCN(CC(=O)O)CCN(CC(=O)O)CC3)CC2C(=O)NCCn2cc(C34CC(C(=O)Nc5nnc(S(N)(=O)=O)s5)(C3)C4)nn2)CC1)(c1ccc(O)cc1)c1ccc(O)cc1.[Lu+3] (stereo not shown) [Compound 131.7] | 1 to 2.5 | < 1 | –
10 | CCC(CC)Nc1c(F)c(S(N)(=O)=O)c(F)c(F)c1S(=O)(=O)CCOCc1cn(CCNC(=O)[C@H]2CN(C(=O)CN3CCN(CC(=O)O)CCN(CC(=O)O)CCN(CC(=O)O)CC3)CCN2C(=O)C[C@H](NC(=O)[C@@H]2COCCN2C(=O)CCCc2ccc(O)cc2)C(=O)O)nn1.[Lu+3] [Compound 107.41] | > 10 | 1 to 2.5 | –
11 | CC(CCC(=O)N1CCOC[C@H]1C(=O)N[C@@H](CC(=O)N1CCN(C(=O)CN2CCN(CC(=O)O)CCN(CC(=O)O)CCN(CC(=O)O)CC2)C[C@@H]1C(=O)NCCn1cc(C23CC(C(=O)Nc4nnc(S(N)(=O)=O)s4)(C2)C3)nn1)C(=O)O)(c1ccc(O)cc1)c1ccc(O)cc1.[Lu+3] [Compound 107.8] | > 10 | 1 to 2.5 | –
12 | CC(CCCC(=O)N1CCC(C(N)=O)(C(=O)NCC(=O)NC2(C(=O)NCCn3nnc(C45CC(C(=O)Nc6nnc(S(N)(=O)=O)s6)(C4)C5)c3C(N)=O)CCN(C(=O)CN3CCN(CC(=O)O)CCN(CC(=O)O)CCN(CC(=O)O)CC3)CC2)CC1)(c1ccc(O)cc1)c1ccc(O)cc1.[Lu+3] [Compound 136] | – | – | Kd [1, 5]: > 10 nM; Kd [2, 6]: < 1 nM
13 | NS(=O)(=O)c1nnc(NC(=O)C23CC(c4cn(CCNC(=O)[C@@H]5CN(C(=O)CN6CCN(CC(=O)O)CCN(CC(=O)O)CCN(CC(=O)O)CC6)CCN5C(=O)C[C@H](NC(=O)C[C@H](NC(=O)c5ccc(C6CC6)nc5)C(=O)O)C(=O)O)nn4)(C2)C3)s1.[Lu+3] [Compound 109.12] | 2.5 to 10 | 1 to 2.5 | –
14 | NC(=O)C1(C(=O)NCC(=O)N2CCN(C(=O)CN3CCN(CC(=O)O)CCN(CC(=O)O)CCN(CC(=O)O)CC3)C[C@H]2C(=O)NCCn2cc(C34CC(C(=O)Nc5nnc(S(N)(=O)=O)s5)(C3)C4)nn2)CCN(C(=O)Cn2nc(-c3ccc(O)cc3)c3ccc(O)cc32)CC1.[Lu+3] [Compound 107.37] | > 10 | > 10 | –
15 | NS(=O)(=O)c1nnc(NC(=O)C23CC(c4cn(CCNC(=O)[C@@H]5CN(C(=O)CN6CCN(CC(=O)O)CCN(CC(=O)O)CCN(CC(=O)O)CC6)CCN5C(=O)C[C@H](NC(=O)C[C@H](NC(=O)c5cnc(C6CC6)nc5)C(=O)O)C(=O)O)nn4)(C2)C3)s1.[Lu+3] [Compound 109.23] | > 10 | 2.5 to 10 | –
16 | CC(CCC(=O)N[C@@H](CC(=O)N[C@@H](CC(=O)N[C@@H](CCCCn1cc([C@H]2CC[C@H](C(=O)Nc3nnc(S(N)(=O)=O)s3)CC2)nn1)C(=O)NCCOCCOCCNC(=O)CN1CCN(CC(=O)O)CCN(CC(=O)O)CCN(CC(=O)O)CC1)C(=O)O)C(=O)O)(c1ccc(O)cc1)c1ccc(O)cc1.[Lu+3] [Compound 100.4] | 2.5 to 10 | < 1 | –
17 | CC(C)(C)c1ccc(C(=O)N[C@@H](CC(=O)N[C@@H](CC(=O)N2CCN(C(=O)CN3CCN(CC(=O)O)CCN(CC(=O)O)CCN(CC(=O)O)CC3)C[C@H]2C(=O)NCCn2cc(C34CC(C(=O)Nc5nnc(S(N)(=O)=O)s5)(C3)C4)nn2)C(=O)O)C(=O)O)cc1.[Lu+3] [Compound 109.26] | 2.5 to 10 | 1 to 2.5 | –
18 | CC(CCCC(=O)N1CCC(C(N)=O)(C(=O)NCC(=O)N2CCN(C(=O)CN3CCN(CC(=O)O)CCN(CC(=O)O)CCN(CC(=O)O)CC3)C[C@H]2C(=O)NCCn2cc(C34CC(C(=O)Nc5nnc(S(N)(=O)=O)s5)(C3)C4)nn2)CC1)(c1ccc(O)cc1)c1ccc(O)cc1.[Lu+3] [Compound 107] | > 10 | < 1 | –
19 | CC(CCC(=O)N[C@@H](CC(=O)N[C@@H](CC(=O)N1CCN(C(=O)CN2CCN(CC(=O)O)CCN(CC(=O)O)CCN(CC(=O)O)CC2)C[C@H]1C(=O)NCCn1cc(-c2ccc(C(=O)Nc3nnc(S(N)(=O)=O)s3)cc2Cl)nn1)C(=O)O)C(=O)O)(c1ccc(O)cc1)c1ccc(O)cc1.[Lu+3] [Compound 107.36] | > 10 | < 1 | –
20 | NS(=O)(=O)c1nnc(NC(=O)C23CC(c4cn(CCNC(=O)[C@@H]5CN(C(=O)CN6CCN(CC(=O)O)CCN(CC(=O)O)CCN(CC(=O)O)CC6)CCN5C(=O)CNC(=O)C5(C(=O)O)CCN(C(=O)Cc6n[nH]c7ccccc67)CC5)nn4)(C2)C3)s1.[Lu+3] [Compound 112.6] | > 10 | 1 to 2.5 | –
21 | NS(=O)(=O)c1nnc(NC(=O)C23CCC(c4cn(CCNC(=O)[C@@H]5CN(C(=O)CN6CCN(CC(=O)O)CCN(CC(=O)O)CCN(CC(=O)O)CC6)CCN5C(=O)CC[C@H](NC(=O)C[C@H](NC(=O)c5coc(C(F)(F)F)n5)C(=O)O)C(=O)O)nn4)(CC2)CC3)s1.[Lu+3] [Compound 109.59] | < 1 | < 1 | –
22 | CC(CCC(=O)N[C@@H](CC(=O)N[C@@H](CC(=O)N1CCN(C(=O)CN2CCN(CC(=O)O)CCN(CC(=O)O)CCN(CC(=O)O)CC2)C[C@@H]1C(=O)NCCn1cc(C23CC(C(=O)Nc4nnc(S(N)(=O)=O)s4)(C2)C3)nn1)C(=O)O)C(=O)O)(c1ccc(O)cc1)c1ccc(O)cc1.[Lu+3] [Compound 107.3] | > 10 | 1 to 2.5 | –
23 | NC(=O)C1(C(=O)NCC(=O)N2CCN(C(=O)CN3CCN(CC(=O)O)CCN(CC(=O)O)CCN(CC(=O)O)CC3)C[C@H]2C(=O)NCCn2cc(C34CC(C(=O)Nc5nnc(S(N)(=O)=O)s5)(C3)C4)nn2)CCN(C(=O)CCn2nc(-c3ccc(O)cc3)c3ccc(O)cc32)CC1.[Lu+3] [Compound 107.52] | > 10 | 1 to 2.5 | –
